Experimental data reported in patent US8940896B2, “Tetra-cyclic carboline derivatives useful in the inhibition of angiogenesis” (PTC Therapeutics, Inc., priority 2004, dated 2015).

System: VEGF
Assay: Hypoxia-inducible endogenous VEGF expression, VEGF ELISA assay
Assay type: cell-based
Conditions: HeLa cells, hypoxic conditions (1% O2, 5% CO2), VEGF in conditioned media
Description: The ability of the compounds of the invention to modulate hypoxia-inducible endogenous VEGF expression may be analyzed as follows. VEGF protein levels may be monitored by an ELISA assay (R&D Systems). Briefly, HeLa cells may be cultured for 24-48 hours under hypoxic conditions (1% O2, 5% CO2, balanced with nitrogen) in the presence or absence of a compound of the invention. The conditioned media may then be assayed by ELISA, and the concentration of VEGF calculated from the standard ELISA curve of each assay.
A dose-response analysis may be performed using the ELISA assay and conditions described above. The conditions for the dose-response ELISA are analogous to those described above. A series of, e.g., seven different concentrations may be analyzed. In parallel, a dose-response cytotoxicity assay may be performed using CellTiter Glo (Promega) under the same conditions as the ELISA to ensure that the inhibition of VEGF expression was not due to the cytotoxicity. Dose-response curves may be plotted using percentage inhibition versus concentration of the compound, and EC50 and CC50 values may be generated for each compound with the maximal inhibition set as 100% and the minimal inhibition as 0%.

| SMILES | EC50 | EC50 (Homo sapiens, HeLa) |
| --- | --- | --- |
| O=C1C2Cc3c([nH]c4ccc(Br)cc34)C(c3ccc4c(c3)OCO4)N2C(=S)N1C1CCCCC1 (centres unmarked) [Compound 9] | 8 to 40 nM | – |
| CC(C)N1C(=O)C2Cc3c([nH]c4ccc(Br)cc34)C(c3ccc(OCCN4CCOCC4)cc3)N2C1=S (centres unmarked) [Compound 103] | – | < 8 nM |
| CN(C)CCCOc1ccc(C2c3[nH]c4ccc(Cl)cc4c3CC3C(=O)N(C4CCCCC4)C(=S)N32)cc1 (centres unmarked) [Compound 114] | – | 40 to 200 nM |
| COc1ccccc1C1c2[nH]c3ccccc3c2CC2C(=O)N(c3cccc(F)c3)C(=S)N21 (centres unmarked) [Compound 92] | – | > 1000 nM |
| COc1ccc(C2c3[nH]c4ccc(Br)cc4c3CC3C(=O)N(C4CCCCC4)C(=S)N32)cc1 (centres unmarked) [Compound 185] | < 8 nM | – |
| O=C1C2Cc3c([nH]c4ccc(Br)cc34)C(c3ccc(OCCN4CCOCC4)cc3)N2C(=S)N1C1CCCCC1 (centres unmarked) [Compound 115] | – | < 8 nM |
| COc1ccccc1C1c2[nH]c3ccccc3c2CC2C(=O)N(C)C(=S)N21 (centres unmarked) [Compound 76] | – | > 1000 nM |
| COc1ccc(C2c3[nH]c4ccc(Br)cc4c3CC3C(=O)N(c4cccc(C)c4)C(=S)N32)cc1 (centres unmarked) [Compound 170] | – | < 8 nM |
| COCCOc1ccc(C2c3[nH]c4ccc(Br)cc4c3CC3C(=O)N(C4CCCCC4)C(=S)N32)cc1 (centres unmarked) [Compound 111] | – | < 8 nM |
| CC(C)N1C(=O)C2Cc3c([nH]c4ccc(Br)cc34)C(c3ccc(N4CCOCC4)cc3)N2C1=O (centres unmarked) [Compound 118] | – | 40 to 200 nM |
| COc1ccc(C2c3[nH]c4ccc(Br)cc4c3CC3C(=O)N(c4ccc(OC)cc4C)C(=S)N32)cc1 (centres unmarked) [Compound 177] | – | 40 to 200 nM |
| Cc1ccc2[nH]c3c(c2c1)CC1C(=O)N(C2CCCCC2)C(=O)N1C3c1ccc2c(c1)OCO2 (centres unmarked) [Compound 44] | – | 200 to 1000 nM |
| COc1ccc(C2c3[nH]c4ccc(Br)cc4c3CC3C(=O)N(Cc4ccco4)C(=S)N32)cc1 (centres unmarked) [Compound 180] | – | < 8 nM |
| COc1ccc(C2c3[nH]c4ccc(Br)cc4c3CC3C(=O)N(c4ccc(Cl)c(C(F)(F)F)c4)C(=S)N32)cc1 (centres unmarked) [Compound 173] | – | < 8 nM |
| COc1ccc(C2c3[nH]c4ccccc4c3CC3C(=O)N(C4CCCCC4)C(=S)N32)cc1 (centres unmarked) [Compound 41] | 200 to 1000 nM | – |
| COc1cccc(C2c3[nH]c4ccccc4c3CC3C(=O)N(C4CC4)C(=S)N32)c1 (centres unmarked) [Compound 6] | – | > 1000 nM |
| O=C1C2Cc3c([nH]c4ccc(Br)cc34)C(c3ccc4c(c3)OCO4)N2C(=S)N1C1CCCC1 (centres unmarked) [Compound 22] | – | < 8 nM |
| COc1ccc(C2c3[nH]c4ccccc4c3CC3C(=O)N(C4CCCCC4)C(=O)N32)cc1 (centres unmarked) [Compound 48] | – | > 1000 nM |
| COCCN1C(=O)C2Cc3c([nH]c4ccccc34)C(c3ccc(OC)cc3)N2C1=S (centres unmarked) [Compound 59] | – | > 1000 nM |

Continued, values first:

| EC50 | EC50 (Homo sapiens, HeLa) | SMILES |
| --- | --- | --- |
| – | 40 to 200 nM | O=C1C2Cc3c([nH]c4ccc(Br)cc34)C(c3ccc(OCCN4CCCCC4)cc3)N2C(=S)N1C1CCCCC1 (centres unmarked) [Compound 26] |
| – | < 8 nM | COc1ccc(C2c3[nH]c4ccc(Br)cc4c3CC3C(=O)N(c4ccc(C(F)(F)F)cc4)C(=S)N32)cc1 (centres unmarked) [Compound 163] |
| – | > 1000 nM | O=C1C2Cc3c([nH]c4ccccc34)C(c3ccc(F)cc3)N2C(=S)N1C1CCCCC1 (centres unmarked) [Compound 4] |
| – | 200 to 1000 nM | CC(C)N1C(=O)C2Cc3c([nH]c4ccc(Cl)cc34)C(c3ccc(N4CCOCC4)cc3)N2C1=O (centres unmarked) [Compound 122] |
| – | < 8 nM | CCN1C(=O)C2Cc3c([nH]c4ccc(Br)cc34)C(c3ccc(OCCN4CCOCC4)cc3)N2C1=S (centres unmarked) [Compound 101] |
| – | 8 to 40 nM | CC(C)N1C(=O)C2Cc3c([nH]c4ccc(Cl)cc34)C(c3ccc(-c4ccncc4)cc3)N2C1=S (centres unmarked) [Compound 134] |
| – | > 1000 nM | O=C1C2Cc3c([nH]c4ccccc34)C(c3cccc(Cl)c3)N2C(=S)N1C1CCCCC1 (centres unmarked) [Compound 36] |
| – | 200 to 1000 nM | COc1ccc(C2c3[nH]c4ccccc4c3CC3C(=O)N(C4CCCCC4)C(=S)N32)cc1 (centres unmarked) [Compound 40] |
| – | 8 to 40 nM | COc1ccc(C2c3[nH]c4ccc(Br)cc4c3CC3C(=O)N(c4ccc(C(=O)O)cc4)C(=S)N32)cc1 (centres unmarked) [Compound 200] |
| – | < 8 nM | COC(=O)c1cccc(N2C(=O)C3Cc4c([nH]c5ccc(Br)cc45)C(c4ccc(OC)cc4)N3C2=S)c1 (centres unmarked) [Compound 140] |
